Common to all, as to type: physicochemical
Data set [1] in a line: Stability in pH 7.4 buffer assessed as half life at 37 degC by 31P NMR analysis. To be noted: for half-life: pH 7.4 buffer.
Data set [2] is described as follows: Stability in pH 7.4 buffer assessed as rate constant of compound hydrolysis at 37 degC by 31P NMR analysis.
A short description of data set [3]: Stability in pH 3 buffer assessed as half life at 37 degC by 31P NMR analysis.
Data set [4] is described as follows: Stability in pH 3 buffer assessed as rate constant of compound hydrolysis at 37 degC by 31P NMR analysis.
The nature of data set [5]: Stability in pH 7.4 buffer assessed as compound hydrolysis measured over 8 hrs at 37 degC by 31P NMR analysis. To be noted: pH 7.4, 8 h.

Take `O=C([O-])CCOP(=O)([O-])N[C@@H](Cc1ccc(O)c(O)c1)C(=O)[O-].[K+].[K+].[K+]`: the half-life in data set [1] and in data set [3] was less than 0.0833 h throughout. The K entry in data set [2] and in data set [4] was “Unstable” throughout.

Consider `CC(=O)N[C@@H](COP(=O)([O-])NCCc1ccc(O)c(O)c1)C(=O)[O-].[K+].[K+]`, for which the half-life in data set [1] was 12.1 h; in data set [3] it was less than 0.0833 h. The K in data set [2] was 5.7 ×10⁻² /hr; in data set [4], “Unstable”.

`CC(=O)N[C@H](C(=O)[O-])[C@@H](C)OP(=O)([O-])N[C@@H](Cc1ccc(O)c(O)c1)C(=O)[O-].[K+].[K+].[K+]`: the figures for the half-life in data set [1] and in data set [3] were 0.92 h and less than 0.0833 h, respectively. Besides, the figures for the K in data set [2] and in data set [4] were 7.2 ×10⁻¹ /hr and “Unstable”, respectively.

As to `O=C([O-])CCCOP(=O)([O-])N[C@@H](Cc1ccc(O)c(O)c1)C(=O)[O-].[K+].[K+].[K+]`, the half-life in data set [1] is more than 8 h; in data set [3], 1.2 h. Also, the K result in data set [2] was “Stable”; in data set [4], 5.4 ×10⁻¹ /hr. Moreover, the Stability result in data set [5] is “Stable”.

Take `CC(=O)NCCOP(=O)([O-])N[C@@H](Cc1ccc(O)c(O)c1)C(=O)[O-].[K+].[K+]`: the half-life in data set [1] is more than 8 h; in data set [3], 1.7 h. In addition, the results for the K result in data set [2] and in data set [4] were “Stable” and 4 ×10⁻¹ /hr, respectively. In addition, the Stability result in data set [5] is reported as “Stable”.

`CCOC(=O)[C@H](COP(=O)([O-])N[C@@H](Cc1ccc(O)c(O)c1)C(=O)[O-])NC(C)=O.[K+].[K+]`: the half-life in data set [1] is more than 8 h; in data set [3] it was 2.7 h. The K result in data set [2] is listed as “Stable”; in data set [4], 2.5 ×10⁻¹ /hr. The Stability entry in data set [5] was “Stable”.

Consider `CCOC(=O)CCOP(=O)([O-])N[C@@H](Cc1ccc(O)c(O)c1)C(=O)[O-].[K+].[K+]`, for which the half-life was more than 8 h in data set [1] and 1.7 h in data set [3]. Also, the results for the K result in data set [2] and in data set [4] were “Stable” and 4 ×10⁻¹ /hr, respectively. In data set [5], the Stability result is on record as “Stable”.

Regarding `CC(=O)N[C@@H](COP(=O)([O-])N[C@@H](Cc1ccc(O)c(O)c1)C(=O)[O-])C(=O)[O-].[K+].[K+].[K+]`, the t1/2 in data set [1] (buffer) was found to be 9.9 h. The K is on record as 7 ×10⁻² /hr in data set [2] and “Unstable” in data set [4]. Moreover, the half-life in data set [3] is less than 0.0833 h.

On to `CCOC(=O)[C@@H](NC(C)=O)[C@@H](C)OP(=O)([O-])N[C@@H](Cc1ccc(O)c(O)c1)C(=O)[O-].[K+].[K+]`, for which the figures for the half-life in data set [1] and in data set [3] were more than 8 h and 5.5 h, respectively. In addition, the K entry was “Stable” in data set [2] and 1.2 ×10⁻¹ /hr in data set [4]. Moreover, the Stability entry in data set [5] is listed as “Stable”.

As a reminder, the half-life is the time in which the quantity being followed falls by half.

These data come from ChEMBL document CHEMBL4385667, “Phosphoramidate derivates as controlled-release prodrugs of l-Dopa” (Bioorg Med Chem Lett, 2019).
